The source of these data is ChEMBL document CHEMBL1201862, “PubChem BioAssay data set” (2004).

Among the test systems are HCT-15; SW-620; SK-OV-3; SNB-19; NCI-H23; Malme-3M; CAKI-1; OVCAR-4; SN12C; DMS-273; LOX IMVI; UACC-257; U-251; SK-MEL-5; MOLT-4; TK-10; DLD-1; M14.
Holding throughout (assay): NCI-60 cell line screen, 48 h

Molecules are shown by their SMILES.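 All cell lines were grown in 96-well plates and treated with compound for 48 hours. At the GI50, growth is halved.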 The source made the active and inactive calls. No stated cut-off is given here; in the data, active = GI50 up to about 1.1 µM and inactive = higher.

In the case of `CSCCC(NC(=O)C(Cc1ccccc1)NC(=O)CNC(=O)CNC(=O)C(N)Cc1ccc(O)cc1)C(=O)O` (stereo not given), the GI50 with HCT-15 is over 100 µM; in the experiment on SW-620 it was > 100 µM (inactive); in the experiment on SK-OV-3, > 100 µM (inactive); in the experiment with SNB-19 it was > 100 µM (inactive); with NCI-H23, > 100 µM (inactive); in the experiment on Malme-3M, > 100 µM (inactive). In addition, the GI50 with CAKI-1, in the experiment on OVCAR-4, with SN12C, in the experiment on DMS-273, with LOX IMVI and with UACC-257 was > 100 µM (inactive) throughout. The GI50 in the experiment with U-251, in the experiment with SK-MEL-5 and in the experiment on MOLT-4 was > 100 µM (inactive) throughout.
With `COc1ccc(OC(C)C(=O)O)c2c(=O)ccccc12` (stereo not given), the GI50 with HCT-15 was over 100 µM; with SW-620, > 100 µM (inactive); in the experiment with SK-OV-3, > 100 µM (inactive); with SNB-19 it was > 100 µM (inactive); in the experiment with NCI-H23, > 100 µM (inactive); in the experiment with Malme-3M, > 100 µM (inactive). Besides, the GI50 in the experiment on OVCAR-4, in the experiment on SN12C, in the experiment with DMS-273, in the experiment on TK-10, in the experiment with LOX IMVI and in the experiment with DLD-1 was > 100 µM (inactive) each time. The GI50 in the experiment on M14, in the experiment on UACC-257, in the experiment on U-251, in the experiment on SK-MEL-5 and in the experiment on MOLT-4 was > 100 µM (inactive) throughout.
For `COc1ccc2oc(-c3ccncc3)cc(=O)c2c1`, the GI50 was over 100 µM with HCT-15; > 100 µM (inactive) with SNB-19; > 100 µM (inactive) in the experiment on NCI-H23; 39.8 µM (inactive) in the experiment on Malme-3M; 33.2 µM (inactive) with CAKI-1; > 100 µM (inactive) in the experiment on OVCAR-4. Moreover, the GI50 in the experiment with SN12C is 38.7 µM (inactive); with DMS-273 it was 62.8 µM (inactive); with LOX IMVI, 57.5 µM (inactive); with DLD-1 it was > 100 µM (inactive); in the experiment on M14, > 100 µM (inactive); with UACC-257, > 100 µM (inactive). In addition, the GI50 with U-251 is 73.3 µM (inactive); in the experiment with MOLT-4, 25.2 µM (inactive).
For the molecule `CCCNC1=C(C)C(=O)C2=C(C1=O)[C@H](COC(N)=O)[C@]1(OC)[C@@H]3N[C@@H]3CN21`, the GI50 in the experiment on HCT-15 was 4.01 µM; in the experiment on SW-620, 3.73 µM (inactive); with SK-OV-3, 16.6 µM (inactive); in the experiment with SNB-19 it was 2.01 µM (inactive); with NCI-H23 it was 0.861 µM (active); with Malme-3M, 6.07 µM (inactive). For the same molecule, the GI50 in the experiment on CAKI-1 is 4.57 µM (inactive); with OVCAR-4, 6.93 µM (inactive); in the experiment on SN12C, 2.42 µM (inactive); with DMS-273, 0.257 µM (active); with LOX IMVI, 1.6 µM (inactive); in the experiment with DLD-1, 5 µM (inactive). Moreover, the GI50 in the experiment with UACC-257 was 5.55 µM (inactive); in the experiment on U-251, 2.48 µM (inactive); in the experiment with SK-MEL-5, 0.65 µM (active); in the experiment on MOLT-4, 1.05 µM (active).
On to `COc1cccc(NC(=O)CC(=O)N2N=C(N(CCC#N)c3ccccc3C)CC2c2ccccc2)c1` (stereo not given), for which the GI50 in the experiment with HCT-15 is over 100 µM; in the experiment with SW-620 it was > 100 µM (inactive); in the experiment with SK-OV-3, > 100 µM (inactive); in the experiment with SNB-19, > 100 µM (inactive); in the experiment on NCI-H23, > 100 µM (inactive); in the experiment with Malme-3M, > 100 µM (inactive). The GI50 in the experiment on CAKI-1, in the experiment with OVCAR-4, in the experiment on SN12C, in the experiment on DMS-273, in the experiment on DLD-1 and in the experiment on M14 was > 100 µM (inactive) in each case. The GI50 in the experiment on UACC-257, with U-251, with SK-MEL-5 and with MOLT-4 was > 100 µM (inactive) in each case.
On to `C[C@]12C/C(=C/O)C(=O)C(O)=C1CC[C@@H]1C2CC[C@@]2(C)C1CC[C@@H]2O` (stereo not given in full), for which the GI50 was 21.5 µM in the experiment on HCT-15; 37 µM (inactive) in the experiment on SW-620; 27.5 µM (inactive) with SK-OV-3; 18.3 µM (inactive) in the experiment on SNB-19; 17.4 µM (inactive) with NCI-H23; 20.8 µM (inactive) in the experiment on Malme-3M. Further, the GI50 in the experiment with CAKI-1 is 26.1 µM (inactive); in the experiment on OVCAR-4, 23.9 µM (inactive); with SN12C it was 25.9 µM (inactive); with DMS-273, 23.5 µM (inactive); with TK-10, 42.1 µM (inactive); with LOX IMVI, 12 µM (inactive). In addition, the GI50 was 17.9 µM (inactive) in the experiment with M14; 22.4 µM (inactive) with UACC-257; > 10 µM (inactive) in the experiment with U-251; 20.2 µM (inactive) in the experiment with SK-MEL-5; 26.4 µM (inactive) in the experiment with MOLT-4.
`COc1ccc2c(c1O)C(=O)C(CCC(=O)O)CC2` (stereo not given): the GI50 was over 100 µM in the experiment with HCT-15; > 100 µM (inactive) in the experiment with SW-620; > 100 µM (inactive) in the experiment on SK-OV-3; > 100 µM (inactive) with SNB-19; > 100 µM (inactive) in the experiment with NCI-H23; > 100 µM (inactive) in the experiment with CAKI-1. Moreover, the GI50 in the experiment with OVCAR-4, with SN12C, with DMS-273, in the experiment on TK-10, in the experiment on LOX IMVI and with DLD-1 was > 100 µM (inactive) in each case. For the same molecule, the GI50 with M14, with UACC-257, with U-251, in the experiment on SK-MEL-5 and with MOLT-4 was > 100 µM (inactive) throughout.
For the molecule `O=C(NCCc1ccccc1)C1C(=O)C(=O)N(CCc2ccccc2)C1=O` (stereo not given), the GI50 in the experiment on HCT-15 was over 100 µM; in the experiment with SW-620 it was > 100 µM (inactive); with SK-OV-3, 48.4 µM (inactive); in the experiment with SNB-19 it was > 100 µM (inactive); in the experiment on NCI-H23, > 100 µM (inactive); in the experiment on Malme-3M it was > 100 µM (inactive). The GI50 with CAKI-1, in the experiment on SN12C, in the experiment with DMS-273, in the experiment on TK-10, in the experiment on LOX IMVI and with DLD-1 was > 100 µM (inactive) throughout. For the same molecule, the GI50 in the experiment with M14, with UACC-257, in the experiment with U-251 and with MOLT-4 was > 100 µM (inactive) each time.
Take `COc1ccc(-c2cc(O)c3cc4c(cc3n2)OCO4)c(OC)c1OC`: the GI50 in the experiment on HCT-15 was over 100 µM; in the experiment on SW-620, 84.9 µM (inactive); with SK-OV-3, 50.8 µM (inactive); with SNB-19 it was > 100 µM (inactive); in the experiment on NCI-H23, > 100 µM (inactive); in the experiment on Malme-3M it was 40.4 µM (inactive). Moreover, the GI50 in the experiment on CAKI-1 was > 100 µM (inactive); with OVCAR-4, > 100 µM (inactive); in the experiment with SN12C, > 100 µM (inactive); with DMS-273 it was 38.2 µM (inactive); in the experiment with TK-10, > 100 µM (inactive); in the experiment on LOX IMVI it was > 100 µM (inactive). For the same molecule, the GI50 in the experiment with DLD-1 is > 100 µM (inactive); in the experiment on M14, 68.1 µM (inactive); in the experiment on U-251 it was > 100 µM (inactive); with SK-MEL-5, 41.5 µM (inactive); with MOLT-4 it was 62.7 µM (inactive).
For `CC(=O)N(C)C=C1C(=O)N(C)C(=O)N(C)C1=O`, the GI50 with HCT-15 was over 100 µM; in the experiment on SW-620, > 100 µM (inactive); in the experiment on SNB-19 it was > 100 µM (inactive); in the experiment with NCI-H23 it was > 100 µM (inactive); in the experiment on Malme-3M, > 100 µM (inactive); in the experiment on CAKI-1 it was > 100 µM (inactive). In addition, the GI50 with OVCAR-4, with SN12C, in the experiment with DMS-273, in the experiment on TK-10, in the experiment with LOX IMVI and in the experiment with DLD-1 was > 100 µM (inactive) each time. The GI50 with M14, with UACC-257, in the experiment on U-251, with SK-MEL-5 and with MOLT-4 was > 100 µM (inactive) each time.
Turning to `O=P(Nc1ccccc1)(Oc1ccccc1)N(CCCl)CCCl` (stereo not given), the GI50 is over 100 µM with HCT-15; > 100 µM (inactive) in the experiment with SW-620; 23.1 µM (inactive) in the experiment with SK-OV-3; > 100 µM (inactive) with NCI-H23; > 100 µM (inactive) in the experiment on Malme-3M; > 100 µM (inactive) in the experiment with CAKI-1. Further, the GI50 with OVCAR-4 was > 100 µM (inactive); in the experiment with SN12C, > 100 µM (inactive); with DMS-273 it was > 100 µM (inactive); in the experiment on TK-10, > 100 µM (inactive); in the experiment on DLD-1, > 100 µM (inactive); in the experiment on M14, 91.8 µM (inactive). The GI50 in the experiment with UACC-257 is > 100 µM (inactive); with U-251, > 100 µM (inactive); in the experiment with SK-MEL-5, 39.4 µM (inactive); in the experiment on MOLT-4, > 100 µM (inactive).
With `COc1ccc(C[C@H](N)C(=O)N2C[C@@H](CO)C[C@@H](n3ccc(=O)[nH]c3=O)C2)cc1`, the GI50 in the experiment with HCT-15 is over 100 µM; in the experiment on SW-620, > 100 µM (inactive); with SK-OV-3 it was > 100 µM (inactive); in the experiment on SNB-19 it was > 100 µM (inactive); in the experiment on NCI-H23, > 100 µM (inactive); in the experiment with Malme-3M, > 100 µM (inactive). Also, the GI50 in the experiment on CAKI-1, with OVCAR-4, with SN12C, in the experiment with DMS-273, with TK-10 and in the experiment on LOX IMVI was > 100 µM (inactive) in each case. Besides, the GI50 in the experiment on DLD-1, in the experiment on M14, in the experiment with U-251, with SK-MEL-5 and with MOLT-4 was > 100 µM (inactive) throughout.
